{"source": "patent US20130143845A1", "about": "“VITAMIN D COMPOUNDS AND METHODS FOR ENHANCING MUSCLE STRENGTH, AND PREVENTION AND TREATMENT OF DISEASE IN HUMAN BEINGS” (priority 2011, published 2013)", "origin": "cited, not measured here", "settings": "in circulation", "note": "Read-outs that look alike come from different tables or passages of the source."}
{"smiles": "C=C1/C(=C\\C=C2/CCC[C@]3(C)[C@@H]([C@H](C)CCCC(C)(C)O)CC[C@@H]23)C[C@@H](O)C[C@@H]1O", "note": "[1,25(OH)2D3, 1α,25-dihydroxyvitamin D3]", "values": [{"measurement": "half-life of 1,25(OH)2D3", "setting": "prolonged by the invention (D3FACCPG), Lichtmann, personal communication", "result": "approximately 12 hours"}, {"measurement": "half-life of 1,25(OH)2D3", "setting": "without the invention (Holick, 2003)", "result": "approximately 4 hours"}]}
